The assay concerns bivalves. As to the kind of experiment: Feed test: detoxification of DSP-toxin containing bivalves by feeding in land-based vessels, DSP by HPLC. In kind it is in vivo. The note with it: Test 5; additive given separately in addition to bioprotein; 7.2° C. From the text:
Seawater from a depth of 45 metres in the Eidfjord, with a salinity of 33-34 per mille, was pumped up into a reservoir on land. The water was then passed into the test vessels. The bivalves were evenly distributed on the mesh/grating in a layer of about 10 cm in thickness. The vessel diameter is about 70 cm. In these small scale tests importance was given to ensuring that oxygen should not be a limiting factor. That is to say that there is sufficient flow-through of water to obtain approximate oxygen saturation in the outflow. The amount of water through each vessel was about 8 litres per minute.
Feeding was effected automatically batchwise throughout the day. That is to say that the daily consumption of the feed slurry according to Example 1 was filled into a tank once a day. The slurry runs from this tank to the bivalve vessel cascade via a valve. In our tests we chose to feed batchwise once an hour. Such portion feeding is important in order to obtain an even distribution to the whole bivalve population. The feed was added in the course of a few seconds. […]
In the case of all the tests, samples were taken immediately prior to the test start and after given time periods. […] The samples were analysed at the Norwegian College of Veterinary Medicine using HPLC (High Performance Liquid Chromatography).
The half-life for DSP was calculated using the following formula: […]

One compound from patent US20090005345A1, “Detoxification of Shellfish” (priority 2005, published 2009) can be followed below.

As for `O=C1O[C@H]([C@@H](O)CO)C(O)=C1O` [Vitamin C], the “Effect on DSP half-life of additive used in addition to bioprotein” value was “no effect”.
